Columns and labels:
[1] = test system: KU-812F; test: Inhibition of Fc-epsilonR1 protein expression in anti-human Fc-epsilonR1 antibody-stimulated human KU-812F cells after 24 hrs by Western blotting; assay type: functional, cell-based
[2] = test system: KU-812F; test: Inhibition of Fc-epsilonR1 alpha mRNA expression in anti-human Fc-epsilonR1 antibody-stimulated human KU-812F cells after 24 hrs by RT-PCR; assay type: functional, cell-based
[3] = molecular target: T1, High affinity immunoglobulin epsilon receptor subunit alpha (Homo sapiens) (UniProt P12319); test: Inhibition of Fc-epsilonR1-mediated [Ca2+]i elevation in anti-human Fc-epsilonR1 antibody-stimulated human KU-812F cells; assay type: cell-based
T1 sequence (whole entry): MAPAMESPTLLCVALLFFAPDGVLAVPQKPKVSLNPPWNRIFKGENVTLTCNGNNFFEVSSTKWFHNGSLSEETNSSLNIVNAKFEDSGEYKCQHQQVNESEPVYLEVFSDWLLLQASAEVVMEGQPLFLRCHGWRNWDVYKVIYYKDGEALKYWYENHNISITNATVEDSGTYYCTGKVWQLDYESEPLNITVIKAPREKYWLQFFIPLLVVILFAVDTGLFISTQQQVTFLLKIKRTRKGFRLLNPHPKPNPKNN

[4] = molecular target: T1, High affinity immunoglobulin epsilon receptor subunit alpha (Homo sapiens); test: Inhibition of Fc-epsilonR1-mediated histamine release in anti-human Fc-epsilonR1 antibody-stimulated human KU-812F cells by spectrofluorimetry; assay type: cell-based
[5] = Inhibition of Fc-epsilonR1 expression in anti-human Fc-epsilonR1 antibody-stimulated human KU-812F cells at 50 uM after 24 hrs by flow cytometry; assay type: functional
[6] = Inhibition of Fc-epsilonR1 expression in anti-human Fc-epsilonR1 antibody-stimulated human KU-812F cells at 5 uM after 24 hrs by flow cytometry; assay type: functional
[7] = Inhibition of Fc-epsilonR1 expression in anti-human Fc-epsilonR1 antibody-stimulated human KU-812F cells at 10 uM after 24 hrs by flow cytometry; assay type: functional
[8] = Inhibition of Fc-epsilonR1 expression in anti-human Fc-epsilonR1 antibody-stimulated human KU-812F cells at 25 uM after 24 hrs by flow cytometry; assay type: functional

Row | SMILES | Activity [1] | Activity [2] | Activity [3] | Activity [4] | inhibition at 50 µM [5] [%] | inhibition at 5 µM [6] [%] | inhibition at 10 µM [7] [%] | inhibition at 25 µM [8] [%]
1 | Oc1cc(O)cc(Oc2c(O)cc(O)c3c2Oc2c(O)cc4oc5c(Oc6cc(O)cc(O)c6)c(O)cc(O)c5c4c2O3)c1 | Dose-dependent effect | Dose-dependent effect | Dose-dependent effect | Dose-dependent effect |  |  |  | 
2 | Oc1cc(O)c2oc3cc(O)c4oc5cc(O)cc(O)c5oc4c3oc2c1 [DIOXINODEHYDROECKOL] | Dose-dependent effect | Dose-dependent effect | Dose-dependent effect | Dose-dependent effect | 16.9 | 25.2 | 23.1 | 19.5
